Consider seven molecules from article PMC6393897, “An LC-MS/MS Method for Simultaneous Determination of the Toxic and Active Components of Cortex Periplocae in Rat Plasma and Application to a Pharmacokinetic Study” (International Journal of Analytical Chemistry, 2019).

Series [1] in a line: Stability of stock and working solutions stored 2 weeks at 4°C. It is filed as physicochemical. As for the experimental part:
The QC samples (n = 6) at three concentrations (low, medium, and high) were also used to assess the stabilities of all analytes. […] For the freeze/thaw cycle stability, the QC samples stored at -80°C were subjected to three freeze to thaw (at room temperature) cycles. […] The mixed analytes solution (100 ng/mL), which was obtained by diluting the stock solution stored for two weeks at 4°C, was used to evaluate the stability of stock solution. The stability of analytes working solution was also assessed by storing solutions 2 weeks at 4°C. The stabilities of stock and working solutions of ISs were determined by the same procedure as that for the analytes.

The nature of series [2]: Stability of analytes in rat plasma QC samples (autosampler, room temperature, freeze/thaw, -80°C). It is filed as in vitro ADME. Particulars: for Freeze thaw cycles stability, Accuracy: three freeze (-80°C)/thaw cycles. As for the experimental part:
The QC samples (n = 6) at three concentrations (low, medium, and high) were also used to assess the stabilities of all analytes. The QC samples under autosampler condition for 24 h were determined to evaluate the autosampler 24 h stability. For the freeze/thaw cycle stability, the QC samples stored at -80°C were subjected to three freeze to thaw (at room temperature) cycles. QC samples stored at room temperature for 24 h and -80°C for 1 month were used to evaluate the short-term stability and the long-term stability. The mixed analytes solution (100 ng/mL), which was obtained by diluting the stock solution stored for two weeks at 4°C, was used to evaluate the stability of stock solution. The stability of analytes working solution was also assessed by storing solutions 2 weeks at 4°C. The stabilities of stock and working solutions of ISs were determined by the same procedure as that for the analytes.

Series [3] in a line: Pharmacokinetic study in rats after oral administration of cortex periplocae extract (plasma LC-MS/MS). It is filed as in vivo, rat. Conditions: oral cortex periplocae extract 18.9 g/kg; for AUC: 0-48 h, read-out: AUC(0-tn); for MRT: read-out: MRT(0-tn). Here is the method: The pharmacokinetic study was conducted in accordance with the Guidelines for the Care and Use of Laboratory Animals and approved by the Animal Ethics Committee of Tianjin University of Traditional Chinese Medicine. […] Appropriate amount of cortex periplocae extract was suspended in 0.5% carboxymethyl cellulose sodium salt aqueous solution (CMC-Na) and the volume of oral administration was 1 mL/100g. […] The rats were anesthetized with ethyl ether before each withdrawal. […] For this repeat bleeds at short intervals, fluid replacement (appropriate volume of physiological saline) was required. The blood samples were immediately centrifuged 10 min at 7000 rpm. The obtained plasma was transferred into another centrifuge tube and stored at -80°C for analysis.
For the maximum drug concentration in plasma (Cmax) and the time to reach maximum drug concentration (Tmax), the values could be directly obtained. The other key parameters such as the area under the plasma concentration–time curve (AUC), elimination half-life (t1/2), and mean residence time (MRT) were calculated with DAS (Drug and Statistics 1.0, Medical College of Wannan, China) using non-compartmental model.

Where [4] appears, read: 2 weeks at 4°C, high level (1200 ng/mL isovanillin, periplocin; 240 ng/mL scopoletin, periplogenin, periplocymarin).
[5] abbreviates: 2 weeks at 4°C, low level (7.2 ng/mL isovanillin, periplocin; 1.44 ng/mL scopoletin, periplogenin, periplocymarin).
[6] abbreviates: 2 weeks at 4°C, medium level (120 ng/mL isovanillin, periplocin; 24 ng/mL scopoletin, periplogenin, periplocymarin).
The mark [7] stands for this setting: n = 6, high level (1200 ng/mL isovanillin, periplocin; 240 ng/mL others).
Setting [8] is: n = 6, low level (7.2 ng/mL isovanillin, periplocin; 1.44 ng/mL others).
Setting [9] is: n = 6, medium level (120 ng/mL isovanillin, periplocin; 24 ng/mL others).
Setting [10] is: male Sprague-Dawley rats, plasma, n = 6, mean ± SD.
Setting [11] is: male, Sprague-Dawley, rat, in vivo, po, 18.9 g/kg, male Sprague-Dawley rats, plasma, n = 6, mean ± SD.
Setting [12] is: rat, in vivo, male Sprague-Dawley rats, plasma, n = 6, mean ± SD.
The mark [13] stands for this setting: rat, in vivo, male Sprague-Dawley rats, plasma, n = 6, mean ± SD, read-out: Cmax.
Where [14] appears, read: rat, male Sprague-Dawley rats, plasma, n = 6, mean ± SD.

Where two headings read alike, the source gives them in different places.

Turning to `O=Cc1ccc(O)c(O)c1` [protocatechuic aldehyde, reference compound], the “Working solution stability of ISs, accuracy” value in series [1] (IS working solutions, 2 weeks at 4°C) came out at 101%.

The term half-life denotes how long it takes for the measured level to halve. In general, AUC refers to the area under the concentration-time curve, a measure of exposure. By AUC(0-inf) is commonly meant the area under the concentration-time curve extrapolated to infinity. The Tmax is the time from dosing to the highest level. A word on the Cmax: it is the maximum level reached in the sampled fluid or tissue. The term MRT denotes the average time that molecules of a dose stay in the body. Consider `COC1CC(OC2CCC3(C)C4CCC5(C)C(C6=CC(=O)OC6)CCC5(O)C4CCC3(O)C2)OC(C)C1OC1OC(CO)C(O)C(O)C1O` (stereo not shown) [periplocin], for which, in series [1] (setting [4]), the “Working solution stability, Accuracy” value is reported as 94.4%. For the same molecule, the “Working solution stability, Accuracy” value in series [1] (setting [5]) is 103%. For the same molecule, the “Working solution stability, Accuracy” value in series [1] (setting [6]) is 98.9%. Moreover, in series [2] (setting [7]), the “-80°C for 1 month stability, Accuracy” value came out at 92.9%; the “Autosampler for 24 hours stability, Accuracy” value (shortened to “Autosampler”) is listed as 113%; the “Room temperature for 24 h stability, Accuracy” value (“Room temperature” for short) stood at 96.4%; the “Freeze thaw cycles stability, Accuracy” value is recorded as 113%. Further, in series [2] (setting [8]), the “-80°C for 1 month stability, Accuracy” value was 115%; the “Autosampler” value came out at 113%; the “Room temperature” value came out at 111%; the “Freeze thaw cycles stability, Accuracy” value amounted to 93.7%. Moreover, in series [2] (setting [9]), the “-80°C for 1 month stability, Accuracy” value was 115%; the “Autosampler” value was 109%; the “Room temperature” value is 116%; the “Freeze thaw cycles stability, Accuracy” value came out at 114%. Besides, the t1/2 in series [3] (setting [10]) stood at 1.08 ± 0.98 h. Further, the half-life in series [3] (setting [11]) was 1.21 ± 1.11 h. In series [3] (setting [12]), the area under the curve (AUC) amounted to 83 ± 58.6 ng·h/mL, the AUC(0-inf) was determined as 105 ± 70.9 ng·h/mL, the Tmax was 0.31 ± 0.16 h and the MRT is 1.21 ± 1.11 h. Further, the Cmax in series [3] (setting [13]) was determined as 91.4 ± 53 ng/mL.

As to `COc1cc2ccc(=O)oc2cc1O` [scopoletin], in series [2] (setting [7]), the “Room temperature” value stood at 103%. The molecule also yielded a Cmax in series [3] (setting [10]) of 177.8 ± 133.85 ng/mL. Moreover, the Cmax in series [3] (male, Sprague-Dawley, rat, plasma, po, 18.9 g/kg, male Sprague-Dawley rats, plasma, n = 6, mean ± SD, read-out: Cmax) came to 178 ± 134 ng/mL. In series [3] (setting [12]), the AUC worked out at 103 ± 76.4 ng·h/mL. Further, in series [3] (setting [14]), the AUC(0-inf) turned out to be 206 ± 153 ng·h/mL, the time to peak (Tmax) turned out to be 0.1 ± 0.03 h, the half-life was 0.19 ± 0.08 h and the MRT came to 11.8 ± 6.6 h.

Take `COc1ccc(C=O)cc1O` [isovanillin]: the “Working solution stability, Accuracy” value in series [1] (setting [4]) is 85.0%; in series [1] (setting [5]) it was 104%; in series [1] (setting [6]), 96.1%. The “-80°C for 1 month stability, Accuracy” value in series [2] (setting [7]) worked out at 99.4%; in series [2] (setting [8]) it was 109%; in series [2] (setting [9]), 100%. Moreover, the “Autosampler” value in series [2] (setting [7]) is 114%; in series [2] (setting [8]), 100%; in series [2] (setting [9]) it was 112%. Also, the figures for the “Room temperature” value in series [2] (setting [7]), in series [2] (setting [8]) and in series [2] (setting [9]) were 103%, 107% and 106%, respectively. Moreover, the “Freeze thaw cycles stability, Accuracy” value is listed as 107% in series [2] (setting [7]), 101% in series [2] (setting [8]) and 98.6% in series [2] (setting [9]). Further, in series [3] (LLOQ 2.4 ng/mL), the “Detection in rat plasma after oral administration” value is on record as “not detected”.

For the molecule `CC(=O)CC(c1ccccc1)c1c(O)c2ccccc2oc1=O` (stereo not shown) [warfarin, reference compound], the “Working solution stability of ISs, accuracy” value in series [1] (2 weeks) stood at 109%.

With `C[C@]12CC[C@H](O)C[C@@]1(O)CC[C@@H]1[C@@H]2CC[C@]2(C)[C@@H](C3=CC(=O)OC3)CC[C@]12O` [periplogenin], the “Working solution stability, Accuracy” value in series [1] (setting [4]) is 81.5%; in series [1] (setting [5]) it was 111%; in series [1] (setting [6]) it was 99.4%. Also, the “-80°C for 1 month stability, Accuracy” value in series [2] (setting [7]) stood at 98.7%; in series [2] (setting [8]), 109%; in series [2] (setting [9]), 108%. For the same molecule, the “Autosampler” value was 104% in series [2] (setting [7]), 108% in series [2] (setting [8]) and 110% in series [2] (setting [9]). Besides, the “Room temperature” value in series [2] (setting [7]) was found to be 101%; in series [2] (setting [8]), 92.6%; in series [2] (setting [9]), 115%. For the same molecule, the “Freeze thaw cycles stability, Accuracy” value in series [2] (setting [7]) is on record as 92.8%; in series [2] (setting [8]) it was 116%; in series [2] (setting [9]) it was 112%.

On to `CO[C@H]1C[C@H](O[C@H]2CC[C@]3(C)[C@H]4CC[C@]5(C)[C@@H](C6=CC(=O)OC6)CC[C@]5(O)[C@@H]4CC[C@]3(O)C2)O[C@H](C)[C@H]1O` [periplocymarin], for which the “Working solution stability, Accuracy” value in series [1] (setting [4]) is given as 84.2%. Also, the “Working solution stability, Accuracy” value in series [1] (setting [5]) is 110%. The “Working solution stability, Accuracy” value in series [1] (setting [6]) was found to be 95.1%. For the same molecule, in series [2] (setting [7]), the “-80°C for 1 month stability, Accuracy” value amounted to 102%; the “Autosampler” value came out at 102%; the “Room temperature” value was 98.5%; the “Freeze thaw cycles stability, Accuracy” value came out at 103%. In addition, in series [2] (setting [8]), the “-80°C for 1 month stability, Accuracy” value is listed as 106%; the “Autosampler” value worked out at 101%; the “Room temperature” value stood at 107%; the “Freeze thaw cycles stability, Accuracy” value is given as 113%. In series [2] (setting [9]), the “-80°C for 1 month stability, Accuracy” value worked out at 102%; the “Autosampler” value amounted to 108%; the “Room temperature” value is on record as 102%; the “Freeze thaw cycles stability, Accuracy” value is on record as 113%. Moreover, the half-life in series [3] (setting [11]) was 30.2 ± 11.8 h. Moreover, in series [3] (rat plasma), the “Cmax ratio periplocymarin versus periplogenin” value turned out to be 9 times. In series [3] (setting [12]), the AUC was 1690 ± 1170 ng·h/mL, the AUC(0-inf) was found to be 2260 ± 1280 ng·h/mL, the time to peak (Tmax) stood at 5.49 ± 4.34 h and the mean residence time (MRT) stood at 17.1 ± 2.48 h. Besides, in series [3] (setting [13]), the peak concentration (Cmax) is 126 ± 96.4 ng/mL.
